Assay results taken from patent US20200131156A1, “ARYLSULFONYLPYROLECARBOXAMIDE DERIVATIVES AS Kv3 POTASSIUM CHANNEL ACTIVATORS” (H. Lundbeck A/S, priority 2018, published 2020).

Target: T1, hKv3.1b (Homo sapiens, UniProt P48547)
T1 construct: expressed in transfected cells
T1 sequence (P48547 1-585 isoform P48547-2): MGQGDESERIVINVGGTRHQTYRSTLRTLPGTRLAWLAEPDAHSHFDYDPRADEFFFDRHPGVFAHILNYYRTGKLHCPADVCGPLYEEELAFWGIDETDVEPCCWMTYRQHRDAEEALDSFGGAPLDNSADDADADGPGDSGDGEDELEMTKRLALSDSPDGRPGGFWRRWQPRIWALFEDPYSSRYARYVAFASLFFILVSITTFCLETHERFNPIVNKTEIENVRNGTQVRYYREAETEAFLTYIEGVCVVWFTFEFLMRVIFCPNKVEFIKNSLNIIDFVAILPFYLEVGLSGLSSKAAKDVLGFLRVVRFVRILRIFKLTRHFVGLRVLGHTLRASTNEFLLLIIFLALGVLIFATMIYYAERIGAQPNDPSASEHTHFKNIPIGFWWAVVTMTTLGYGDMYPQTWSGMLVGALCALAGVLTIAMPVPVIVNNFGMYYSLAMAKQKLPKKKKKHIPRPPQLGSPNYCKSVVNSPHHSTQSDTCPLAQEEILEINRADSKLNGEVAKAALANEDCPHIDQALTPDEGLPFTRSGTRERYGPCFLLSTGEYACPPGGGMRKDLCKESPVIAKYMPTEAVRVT
Experiment: Automated patch clamp (QPatch-16x) on HEK-293 cells stably expressing hKv3.1b
Format: cell-based
Conditions: for ECdelta5 mV: concentration needed to shift the activation threshold 5 mV; for Threshold Shift: maximum absolute hyperpolarizing shift of activation threshold at tested concentrations 0.37-30 μM
Experimental: HEK-293 cells stably expressing hKv3.1b were used for the experiments. Cells were cultured in DMEM medium supplemented with 10% Fetal Bovine Serum, 100 ug/mL Geneticidin and 100 u/mL Penicillin/Streptomycin (all from Gibco). Cells were grown to 80-90% confluency at 37° C. and 5% CO2. On the day of the experiment the cells were detached from the tissue culture flasks by Detachin, resuspended in serum free medium containing 25 mM HEPES and transferred to the cell hotel of the QPatch. The cells were used for experiments 0-5 hours after detachment.
Patch-clamp recordings were performed using the automated recording system QPatch-16x (Sophion Bioscience, Denmark). Cells were centrifuged, SFM removed and the cells were resuspended in extracellular buffer containing (in mM): 145 NaCl, 4 KCl, 1 MgCl2, 2 CaCl2, 10 HEPES and 10 glucose (added fresh on the day of experiment); pH 7.4 adjusted with NaOH, 305 mOsm adjusted with sucrose.
Single cell whole-cell recordings were carried out using an intracellular solution containing (in mM): 120 KCl, 32.25/10 KOH/EGTA, 5.374 CaCl2, 1.75 MgCl2, 10 HEPES, 4 Na2ATP (added fresh on the day), pH 7.2 adjusted with KOH, […] adjusted with sucrose. Cell membrane potentials were held at −80 mV and currents were evoked by voltage steps (200 ms duration) from −70 mV to +10 mV (in 10 mV increments). Vehicle (0.33% DMSO) or increasing concentration of compound (I) were applied and the voltage protocol was run 3 times (resulting in 3 min cpd incubation time). Five increasing concentrations of compound (I) were applied to each cell.
Leak subtraction protocol was applied at −33% of the sweep amplitude, and serial resistance values were constantly monitored.
Any cell where serial resistance exceeded 25 MOhm, membrane resistance less than 200 MOhm or current size at −10 mV less than 200 pA was eliminated from the subsequent analysis.
Data analysis was performed using Sophion's QPatch assay software in combination with Microsoft Excel™ (Redmond, Wash., USA). Current voltage relationships were plotted from the peak current at the individual voltage steps normalized to the vehicle addition at 10 mV. The voltage threshold for channel activation was defined as 5% activation of the peak current at 10 mV in presence of vehicle. The activity of the compounds was described as the ability to shift this current voltage relationship to more hyperpolarized potentials and is given as the maximum absolute shift possible at the tested concentrations (0.37, 1.11, 3.33, 10, 30 μM). Concentration response curves were plotted from the threshold shift at the individual concentrations and were fitted excel fit model 205 sigmoidal dose-response model (fit=A+((B−A)/1+((C/x)^D)))), where A is the minimum value, B the maximum value, C the EC50 value and D the slope of the curve. The concentration needed to shift the threshold 5 mV was readout from this curve (ECdelta5 mV).

Compound | ECdelta5 mV | Threshold Shift
Cc1ccc(S(=O)(=O)n2ccc(C(=O)NCc3ncc(C)o3)c2)cc1 [Compound 33, N-[(5-methyloxazol-2-yl)methyl]-1-(p-tolylsulfonyl)pyrrole-3-carboxamide] | 2200 nM | 15 mV
Cc1ccc(S(=O)(=O)n2ccc(C(=O)NCc3nc(C)cs3)c2)cc1 [Compound 34, N-[(4-methylthiazol-2-yl)methyl]-1-(p-tolylsulfonyl)pyrrole-3-carboxamide] | 1100 nM | 18 mV
Cc1ccc(S(=O)(=O)n2ccc(C(=O)NCc3cc(C)no3)c2)cc1 [Compound 35, N-[(3-methylisoxazol-5-yl)methyl]-1-(p-tolylsulfonyl) pyrrole-3-carboxamide] | 1100 nM | 21 mV
Cc1ccc(S(=O)(=O)n2ccc(C(=O)NCc3ccn(C)n3)c2)cc1 [Compound 36, N-[(1-methylpyrazol-3-yl)methyl]-1-(p-tolylsulfonyl) pyrrole-3-carboxamide] | 810 nM | 27 mV
Cc1ccc(S(=O)(=O)n2ccc(C(=O)NCc3cnc(C)o3)c2)cc1 [Compound 38, N-[(2-methyloxazol-5-yl)methyl]-1-(p-tolylsulfonyl)pyrrole-3-carboxamide] | 4600 nM | 13 mV
Cc1ccc(S(=O)(=O)n2ccc(C(=O)NCc3ncc(C)s3)c2)cc1 [Compound 39, N-[(5-methylthiazol-2-yl)methyl]-1-(p-tolylsulfonyl)pyrrole-3-carboxamide] | 1600 nM | 17 mV
Cc1ccc(S(=O)(=O)n2ccc(C(=O)NCc3cn(C)cn3)c2)cc1 [Compound 40, N-[(1-methylimidazol-4-yl)methyl]-1-(p-tolylsulfonyl)pyrrole-3-carboxamide] | 2000 nM | 22 mV
Cc1ccc(S(=O)(=O)n2ccc(C(=O)NCc3cn(C)nn3)c2)cc1 [Compound 41, N-[(1-methyltriazol-4-yl)methyl]-1-(p-tolylsulfonyl)pyrrole-3-carboxamide] | 3100 nM | 17 mV
Cc1ccc(S(=O)(=O)n2ccc(C(=O)NCc3ncn(C)n3)c2)cc1 [Compound 42, N-[(1-methyl-1,2,4-triazol-3-yl)methyl]-1-(p-tolylsulfonyl)pyrrole-3-carboxamide] | 1700 nM | 25 mV
Cc1ccc(S(=O)(=O)n2ccc(C(=O)NCc3nc(C)no3)c2)cc1 [Compound 43, N-[(3-methyl-1,2,4-oxadiazol-5-yl)methyl]-1-(p-tolylsulfonyl)pyrrole-3-carboxamide] | 1700 nM | 23 mV
Cc1ccc(S(=O)(=O)n2ccc(C(=O)NCc3coc(C)n3)c2)cc1 [Compound 47, 1-(4-methylbenzene-1-sulfonyl)-N-[(2-methyl-1,3-oxazol-4-yl)methyl]-1H-pyrrole-3-carboxamide] | 2300 nM | 12 mV
Cc1cnc(CNC(=O)c2ccn(S(=O)(=O)c3ccccc3)c2)cn1 [Compound 48, 1-(benzenesulfonyl)-N-[(5-methylpyrazin-2-yl)methyl]-1H-pyrrole-3-carboxamide] | 2300 nM | 18 mV
Cc1ccc(S(=O)(=O)n2ccc(C(=O)NCc3ccno3)c2)cc1 [Compound 53, 1-(4-methylbenzene-1-sulfonyl)-N-[(1,2-oxazol-5-yl)methyl]-1H-pyrrole-3-carboxamide] | 2300 nM | 15 mV
Cc1ccc(S(=O)(=O)n2ccc(C(=O)NCc3nncs3)c2)cc1 [Compound 56, 1-(4-methylbenzene-1-sulfonyl)-N-[(1,3,4-thiadiazol-2-yl)methyl]-1H-pyrrole-3-carboxamide] | 6800 nM | 14 mV
Cc1ccc(S(=O)(=O)n2ccc(C(=O)NCc3ncon3)c2)cc1 [Compound 57, 1-(4-methylbenzene-1-sulfonyl)-N-[(1,2,4-oxadiazol-3-yl)methyl]-1H-pyrrole-3-carboxamide] | 3600 nM | 14 mV
O=C(NCc1cnccn1)c1ccn(S(=O)(=O)c2ccccc2F)c1 [Compound 59, 1-(2-fluorobenzene-1-sulfonyl)-N-[(pyrazin-2-yl)methyl]-1H-pyrrole-3-carboxamide] | 2000 nM | 14 mV
Cc1cccc(S(=O)(=O)n2ccc(C(=O)NCc3ccn(C)n3)c2)c1 [Compound 60, 1-(3-methylbenzene-1-sulfonyl)-N-[(1-methyl-1H-pyrazol-3-yl)methyl]-1H-pyrrole-3-carboxamide] | 2200 nM | 16 mV
Cc1cccc(S(=O)(=O)n2ccc(C(=O)NCc3nc(C)no3)c2)c1 [Compound 61, 1-(3-methylbenzene-1-sulfonyl)-N-[(3-methyl-1,2,4-oxadiazol-5-yl)methyl]-1H-pyrrole-3-carboxamide] | 5900 nM | 12 mV

Second part, the compound after the results:

ECdelta5 mV | Threshold Shift | Compound
1800 nM | 22 mV | Cc1ccc(S(=O)(=O)n2ccc(C(=O)NCc3cnn(C)c3)c2)cc1 [Compound 37, N-[(1-methylpyrazol-4-yl)methyl]-1-(p-tolylsulfonyl) pyrrole-3-carboxamide]
2100 nM | 13 mV | Cc1ccc(S(=O)(=O)n2ccc(C(=O)NCc3cscn3)c2)cc1 [Compound 49, 1-(4-methylbenzene-1-sulfonyl)-N-[(1,3-thiazol-4-yl)methyl]-1H-pyrrole-3-carboxamide]
3300 nM | 13 mV | Cc1ccc(S(=O)(=O)n2ccc(C(=O)NCc3cnco3)c2)cc1 [Compound 50, 1-(4-methylbenzene-1-sulfonyl)-N-[(1,3-oxazol-5-yl)methyl]-1H-pyrrole-3-carboxamide]
2400 nM | 14 mV | Cc1ccc(S(=O)(=O)n2ccc(C(=O)NCc3nccs3)c2)cc1 [Compound 51, 1-(4-methylbenzene-1-sulfonyl)-N-[(1,3-thiazol-2-yl)methyl]-1H-pyrrole-3-carboxamide]
2500 nM | 13 mV | Cc1ccc(S(=O)(=O)n2ccc(C(=O)NCc3ccon3)c2)cc1 [Compound 52, 1-(4-methylbenzene-1-sulfonyl)-N-[(1,2-oxazol-3-yl)methyl]-1H-pyrrole-3-carboxamide]
2000 nM | 15 mV | Cc1ccc(S(=O)(=O)n2ccc(C(=O)NCc3cocn3)c2)cc1 [Compound 54, 1-(4-methylbenzene-1-sulfonyl)-N-[(1,3-oxazol-4-yl)methyl]-1H-pyrrole-3-carboxamide]
1500 nM | 15 mV | Cc1ccc(S(=O)(=O)n2ccc(C(=O)NCc3cnsc3)c2)cc1 [Compound 55, 1-(4-methylbenzene-1-sulfonyl)-N-[(1,2-thiazol-4-yl)methyl]-1H-pyrrole-3-carboxamide]
2200 nM | 22 mV | Cc1ccc(S(=O)(=O)n2ccc(C(=O)NCc3cncnc3)c2)cc1 [Compound 58, 1-(4-methylbenzene-1-sulfonyl)-N-[(pyrimidin-5-yl)methyl]-1H-pyrrole-3-carboxamide]
